Our source for the inhibition in vivo and ED50 values is ChEMBL document CHEMBL3244093, “Synthesis and antiinflammatory activity of trisubstituted pyrimidines and triazines” (1978).

SMILES strings stand for the structures.

For one assay, the system named is Rattus norvegicus. As to the kind of experiment: Antiinflammatory activity in rat assessed as inhibition of carrageenan-induced foot edema at 100 mg/kg, po administered 1 hr before carrageenan challenge measured after 3 to 3.5 hrs relative to untreated control. The assay is classed as functional. On the technique in general: The carrageenan paw model is a standard test of acute inflammation.
Consider `Cc1ncnnc1-c1ccccc1`, for which the inhibition in vivo at 100 mg/kg is below 5%.

Take `CC(C)(C)c1nc(N)ncc1-c1ccccc1`: the inhibition in vivo at 100 mg/kg came to 46%. Regarding `Cc1cncnc1-c1ccncc1`, the inhibition in vivo at 100 mg/kg came out at 50%. In the case of `CN1CCc2nc(N)ncc2C1`, the inhibition in vivo at 100 mg/kg was below 5%. Consider `Cc1nnc2c(ccc3ccccc32)n1`, for which the inhibition in vivo at 100 mg/kg is below 5%. As for `c1ccc(-c2nccc(-c3ccncc3)n2)cc1`, the inhibition in vivo at 100 mg/kg came out at 42%. Still for that read-out and setting: the figure for `CC(C)(C)c1nc(N)ncc1-c1ccc(Cl)cc1` is 25%; for `Cc1ncc2c(n1)CCC(C(C)(C)C)C2` (stereo unspecified) it is below 5%; for `c1ccc2c(c1)ccc1ncnnc12` it is below 5%. The same measure, in the same setting: the figure for `CC(C)(C)c1nc(NC#N)ncc1-c1ccccc1` is below 5%; for `CC(C)(C)Nc1nccc(C(C)(C)C)n1` it is 26%. On the same count and under the same terms, the figure for `CC(=O)N(C(C)=O)c1ncc(-c2ccccc2)c(C(C)(C)C)n1` is 22%; for `CC(C)(C)C1CCc2nnc[n+]([O-])c2C1` (stereo unspecified) it is 36%; for `c1ccc(-c2nnc3c(ccc4ccccc43)n2)cc1` it is below 5%. For `Nc1ncc2c(n1)CCCCCCCCCC2`, the inhibition in vivo at 100 mg/kg is below 5%. Turning to `Nc1ncc(-c2ccccc2)c(-c2ccncc2)n1`, the inhibition in vivo at 100 mg/kg came to 48%. Still for that read-out and setting: the figure for `CNc1ncc(-c2ccccc2)c(C(C)(C)C)n1` is 37%. With `COc1ccc(-c2cnc(C)nc2-c2ccc(OC)cc2)cc1`, the inhibition in vivo at 100 mg/kg is below 5%.

In the case of `CN1CCc2ncncc2C1`, the inhibition in vivo at 100 mg/kg was determined as 50%.

For the compound `Cc1ncc(C)c(-c2ccccc2)n1`, the inhibition in vivo at 100 mg/kg was 12%.

For `Nc1nccc(-c2ccncc2)n1` [listing 1 of 2 here], the inhibition in vivo at 100 mg/kg worked out at 18%.

For `CC(C)(C)C1CCc2nnc(-c3ccccc3)[n+]([O-])c2C1` (stereo unspecified), the inhibition in vivo at 100 mg/kg came to 15%. Consider `CC(C)(C)c1nc(NC(N)=O)ncc1-c1ccccc1`, for which the inhibition in vivo at 100 mg/kg stood at 14%. `N#CNc1nccc(-c2ccncc2)n1`: the inhibition in vivo at 100 mg/kg is below 5%. As for `c1ccc2c(c1)CCCc1ncnnc1-2`, the inhibition in vivo at 100 mg/kg was below 5%. `CC(=O)Nc1ncc(-c2ccccc2)c(C(C)(C)C)n1`: the inhibition in vivo at 100 mg/kg stood at 29%. Turning to `CC(C)(C)c1ccnc(S)n1`, the inhibition in vivo at 100 mg/kg came out at 22%. In the case of `CC(=O)Nc1nccc(-c2ccncc2)n1`, the inhibition in vivo at 100 mg/kg was 52%. `c1cc(-c2ccncn2)ccn1`: the inhibition in vivo at 100 mg/kg was found to be 45%.

For `Cc1nnc2c(n1)CC(C(C)(C)C)CC2` (stereo unspecified), the inhibition in vivo at 100 mg/kg was below 5%. On the same count and under the same terms, the figure for `CN(C)c1nccc(C(C)(C)C)n1` is 18%; for `CC(C)(C)c1c[n+]([O-])c(-c2ccccc2)nn1` it is 35%. Same read-out and setting: the figure for `Cc1ncc2c(n1)-c1ccccc1CC2` is below 5%; for `CC(C)(C)c1nc(N)ncc1-c1cccc(C(F)(F)F)c1` it is 8%; for `c1ncc2c(n1)CCCCCCCCCC2` it is below 5%. On the same count and under the same terms, the figure for `Cc1cnc(N)nc1-c1ccccc1` is 34%; for `CCCCc1nnc2c(ccc3ccccc32)n1` it is below 5%.

As to `Cc1nnc(C(C)(C)C)c[n+]1[O-]`, the inhibition in vivo at 100 mg/kg was determined as 22%. In the case of `CSc1nccc(C(C)(C)C)n1`, the inhibition in vivo at 100 mg/kg is 35%. As to `Cc1ncc(-c2ccccc2)c(C(C)(C)C)n1`, the inhibition in vivo at 100 mg/kg was determined as 22%.

In the case of `Cc1cncnc1-c1ccccc1`, the inhibition in vivo at 100 mg/kg was 48%. Same read-out and setting: the figure for `Nc1nccc(-c2ccccn2)n1` is 17%; for `Cc1ncc2c(n1)-c1ccccc1CCC2` it is below 5%.

For `CC(C)(C)c1ccnc(NCc2ccccc2)n1`, the inhibition in vivo at 100 mg/kg was 14%.

`CC(C)(C)c1nc(NN)ncc1-c1ccccc1`: the inhibition in vivo at 100 mg/kg was below 5%. As for `CCOC(=O)Nc1ncc(-c2ccccc2)c(C(C)(C)C)n1`, the inhibition in vivo at 100 mg/kg came out at 24%. For `NC(=O)Nc1nccc(-c2ccncc2)n1`, the inhibition in vivo at 100 mg/kg was 12%. On the same count and under the same terms, the figure for `Nc1ncc2c(n1)-c1ccccc1CC2` is 32%; for `CC(C)(C)C1CCc2nc(N)ncc2C1` (stereo unspecified) it is 41%. On to `CC(C)(C)c1ccnc(N)n1`, for which the inhibition in vivo at 100 mg/kg was found to be 32%. Regarding `CC(C)(C)c1nc(NC(=O)CCCC(=O)O)ncc1-c1ccccc1`, the inhibition in vivo at 100 mg/kg turned out to be 5%.

In the case of `Cc1ncc2c(n1)-c1ccccc1C2`, the inhibition in vivo at 100 mg/kg was below 5%.

For `CCOC(=O)Nc1nccc(-c2ccncc2)n1`, the inhibition in vivo at 100 mg/kg is 31%. The same measure, in the same setting: the figure for `Cc1ncc2c(n1)CCCCCCCCCC2` is below 5%; for `Cc1ncc(C(C)(C)C)nn1` it is 25%. For the compound `CC(C)(C)C1CCc2nncnc2C1` (stereo unspecified), the inhibition in vivo at 100 mg/kg is 49%. Consider `CC(C)(C)c1cnc(-c2ccccc2)nn1`, for which the inhibition in vivo at 100 mg/kg came to 38%. For the compound `Cc1nc(-c2ccccc2)nnc1-c1ccccc1`, the inhibition in vivo at 100 mg/kg is below 5%.

In the case of `CC(C)(C)c1ccnc(Cl)n1`, the inhibition in vivo at 100 mg/kg was below 5%. Consider `CC(C)(C)c1nc(-c2ccccc2)ncc1-c1ccccc1`, for which the inhibition in vivo at 100 mg/kg was below 5%. As for `CC(C)(C)c1ccnc(Nc2ccccc2)n1`, the inhibition in vivo at 100 mg/kg is 21%. The same measure, in the same setting: the figure for `c1ccc2c(c1)CCc1cncnc1-2` is 32%; for `Cc1ncc2c(n1)CCN(C)C2` it is 45%. Still for that read-out and setting: the figure for `CC(C)(C)c1ncncc1-c1ccccc1` is 48%; for `Nc1nccc(-c2cccnc2)n1` it is 32%; for `Cc1nnc2c([n+]1[O-])CC(C(C)(C)C)CC2` (stereo unspecified) it is 48%. In the case of `CNc1nccc(C(C)(C)C)n1`, the inhibition in vivo at 100 mg/kg is 34%. As to `CC(C)(C)c1ccnc(NCCc2ccccc2)n1`, the inhibition in vivo at 100 mg/kg is 10%.

A further assay concerns Rattus norvegicus. The assay is described as follows: Antiinflammatory activity in po dosed rat assessed as inhibition of carrageenan-induced foot edema compound administered 1 hr before carrageenan challenge measured after 3 to 3.5 hrs relative to untreated control. The assay is classed as functional.
For the compound `COc1ccc(-c2cnc(N)nc2-c2ccc(OC)cc2)cc1`, the ED50 amounted to 85 mg/kg.

Consider `CNc1nccc(-c2ccncc2)n1`, for which the ED50 came out at 49 mg/kg. As to `Cc1ccc2c(-c3ccccc3)nc(=O)n(C(C)C)c2c1` [PROQUAZONE], the ED50 was found to be 5.2 mg/kg.

Turning to `Cc1nccc(-c2ccncc2)n1`, the median effective dose (ED50) came to 47 mg/kg. On the same count and under the same terms, the figure for `CC(C)(C)c1ccnc(O)n1` is 43 mg/kg; for `CCCCC1C(=O)N(c2ccccc2)N(c2ccccc2)C1=O` [PHENYLBUTAZONE] it is 25 mg/kg; for `Cc1c(-c2ccccc2)nnc[n+]1[O-]` it is 64 mg/kg. The same measure, in the same setting: the figure for `CC(C)(C)c1c[n+]([O-])cnn1` is 98 mg/kg; for `CN(C)CC(=O)Nc1ncc(-c2ccccc2)c(C(C)(C)C)n1` it is 84 mg/kg; for `Nc1nccc(-c2ccncc2)n1` [listing 2 of 2 here] it is 38 mg/kg. As to `Cc1cnc(N)nc1-c1ccncc1`, the ED50 stood at 66 mg/kg. The same measure, in the same setting: the figure for `CC(C)(C)C1CCc2ncncc2C1` (stereo unspecified) is 58 mg/kg; for `c1ccc(-c2cncnc2-c2ccncc2)cc1` it is 95 mg/kg.

One may read the inhibition in vivo as the drop in the measured response relative to a control, in per cent. Usually ED50 stands for the dose that gives a 50% effect, or the effect in half of the subjects.
